Source: ChEMBL document CHEMBL1135346, “2,5-Pyridinedicarboxylic acid derivatives as non-nucleosidic reverse transcriptase inhibitors of hepatitis B virus” (Bioorg Med Chem Lett, 2002)
Converted amounts (≈) assume the structure as drawn.

What was measured:
[1] = Inhibitory concentration against Hepatitis B virus reverse transcriptase (HBV-RT)
[2] = Inhibitory activity against Hepatitis B virus reverse transcriptase (HBV-RT) at 0.01 ug/mL
[3] = Inhibitory activity against Hepatitis B virus reverse transcriptase (HBV-RT) at 0.1 ug/mL
[4] = Inhibitory activity against Hepatitis B virus reverse transcriptase (HBV-RT) at 1 ug/mL
[5] = Inhibitory concentration against Hepatitis B virus-Reverse-transcriptase (HBV-RT)

Structure (SMILES) | IC50 [1] [µg/mL] | inhibition [2] [%] | inhibition [3] [%] | inhibition [4] [%] | IC50 [5] [ng/mL]
CC(C)(CO)NC(=O)c1ccc(C(=O)N2CCN(c3ncccc3N)CC2)nc1 | 0.038 (≈ 0.0954 µM) | 38 | 62 | 70 | 
CC(C)Nc1cccnc1N1CCN(C(=O)c2ccc(C(=O)NCc3ccccn3)cn2)CC1 | 0.007 (≈ 0.0152 µM) | 53 | 62 | 77 | 
CC(C)CNc1cccnc1N1CCN(C(=O)c2ccc(C(=O)NC(C)C)cn2)CC1 | 0.005 (≈ 0.0118 µM) | 58 | 66 | 90 | 
CC(C)Nc1cccnc1N1CCN(C(=O)c2ccc(C(=O)NCCCO)cn2)CC1 | 0.012 (≈ 0.0281 µM) | 49 | 60 | 71 | 
CC(C)CNc1cccnc1N1CCN(C(=O)c2ccc(C(=O)NC(C)(C)CO)cn2)CC1 | 0.001 (≈ 0.0022 µM) | 63 | 71 | 90 | 
CC(C)Nc1cccnc1N1CCN(C(=O)c2ccc(C(=O)NC3CCCC3)cn2)CC1 | 0.029 (≈ 0.0664 µM) | 39 | 65 | 75 | 
CC(C)Nc1cccnc1N1CCN(C(=O)c2ccc(C(=O)NCCO)cn2)CC1 | 0.261 (≈ 0.633 µM) | 30 | 51 | 54 | 
CCNc1cccnc1N1CCN(C(=O)c2ccc(C(=O)NCCN3CCOCC3)cn2)CC1 | 0.109 (≈ 0.233 µM) | 30 | 52 | 66 | 
CC(C)NC(=O)c1ccc(C(=O)N2CCN(c3ncccc3N)CC2)nc1 | 0.023 (≈ 0.0624 µM) | 43 | 62 | 79 | 
CC(C)Nc1cccnc1N1CCN(C(=O)c2ccc(C(=O)NCCCn3ccnc3)cn2)CC1 | 0.001 (≈ 0.0021 µM) | 65 | 72 | 89 | 
CCNc1cccnc1N1CCN(C(=O)c2ccc(C(=O)NC(C)(C)CO)cn2)CC1 | 0.068 (≈ 0.159 µM) | 32 | 56 | 72 | 
CCNc1cccnc1N1CCN(C(=O)c2ccc(C(=O)NC(C)C)cn2)CC1 | 0.006 (≈ 0.0151 µM) | 54 | 67 | 85 | 
CC(C)NC(=O)c1ccc(C(=O)N2CCN(c3ncccc3NC(C)C)CC2)nc1 | 0.149 (≈ 0.363 µM) | 23 | 51 | 65 | 
CC(C)Nc1cccnc1N1CCN(C(=O)c2ccc(C(=O)NC3CC3)cn2)CC1 | 0.237 (≈ 0.58 µM) | 5 | 51 | 62 | 
CC(C)CNc1cccnc1N1CCN(C(=O)c2ccc(C(=O)NCCO)cn2)CC1 | 0.009 (≈ 0.0211 µM) | 54 | 60 | 86 | 
CC(C)CNc1cccnc1N1CCN(C(=O)c2ccc(C(=O)NCCCn3ccnc3)cn2)CC1 | 0.002 (≈ 0.00408 µM) | 60 | 72 | 88 | 
CC(C)Nc1cccnc1N1CCN(C(=O)c2ccc(C(=O)NC(C)(C)C)cn2)CC1 | 0.002 (≈ 0.00471 µM) | 61 | 72 | 88 | 
CC(C)Nc1cccnc1N1CCN(C(=O)c2ccc(C(=O)Nc3ccccn3)cn2)CC1 | 0.085 (≈ 0.191 µM) | 26 | 55 | 74 | 

Structure (SMILES) | IC50 [1] [µg/mL] | inhibition [2] [%] | inhibition [3] [%] | inhibition [4] [%] | IC50 [5] [ng/mL]
CCNc1cccnc1N1CCN(C(=O)c2ccc(C(=O)NCc3ccccn3)cn2)CC1 | 0.116 (≈ 0.26 µM) | 19 | 56 | 70 | 
CCNc1cccnc1N1CCN(C(=O)c2ccc(C(=O)NCCOC)cn2)CC1 | 0.049 (≈ 0.119 µM) | 36 | 57 | 75 | 
Nc1cccnc1N1CCN(C(=O)c2ccc(C(=O)NCCO)cn2)CC1 | 0.003 (≈ 0.0081 µM) | 54 | 67 | 74 | 
CC(C)Nc1cccnc1N1CCN(C(=O)c2ccc(C(=O)NCCN3CCOCC3)cn2)CC1 | 0.012 (≈ 0.0249 µM) | 49 | 60 | 70 | 
CC(C)CNC(=O)c1ccc(C(=O)N2CCN(c3ncccc3NC(C)C)CC2)nc1 | 0.002 (≈ 0.00471 µM) | 61 | 65 | 83 | 
CC(C)CNc1cccnc1N1CCN(C(=O)c2ccc(C(=O)Nc3ncccc3O)cn2)CC1 | 0.17 (≈ 0.357 µM) | 13 | 46 | 71 | 
CC(C)Nc1cccnc1N1CCN(C(=O)c2ccc(C(=O)NC(C)(C)CO)cn2)CC1 |  | 62 | 65 | 80 | 1 (≈ 0.00227 µM)
COCCCNC(=O)c1ccc(C(=O)N2CCN(c3ncccc3NCC(C)C)CC2)nc1 | 0.123 (≈ 0.271 µM) | 20 | 51 | 72 | 
COCCNC(=O)c1ccc(C(=O)N2CCN(c3ncccc3NCC(C)C)CC2)nc1 | 0.007 (≈ 0.0159 µM) | 52 | 70 | 85 | 
Cc1ccn(NC(=O)c2ccc(C(=O)N3CCN(c4ncccc4NC(C)C)CC3)nc2)n1 | 0.124 (≈ 0.276 µM) | 20 | 53 | 70 | 
Cc1cc(NC(=O)c2ccc(C(=O)N3CCN(c4ncccc4NC(C)C)CC3)nc2)no1 | 0.11 (≈ 0.245 µM) | 25 | 50 | 72 | 
COCCNC(=O)c1ccc(C(=O)N2CCN(c3ncccc3NC(C)C)CC2)nc1 | 0.001 (≈ 0.00234 µM) | 60 | 68 | 80 | 
CCNc1cccnc1N1CCN(C(=O)c2ccc(C(=O)NCCO)cn2)CC1 | 0.007 (≈ 0.0176 µM) | 52 | 69 | 84 | 
Nc1cccnc1N1CCN(C(=O)c2ccc(C(=O)NCc3ccccn3)cn2)CC1 | 0.106 (≈ 0.254 µM) | 22 | 54 | 72 | 
COC(CNC(=O)c1ccc(C(=O)N2CCN(c3ncccc3NC(C)C)CC2)nc1)OC | 0.005 (≈ 0.011 µM) | 57 | 65 | 87 | 
CC(C)CNc1cccnc1N1CCN(C(=O)c2ccc(C(=O)NC3CC3)cn2)CC1 | 0.002 (≈ 0.00473 µM) | 60 | 71 | 87 | 
COCCCNC(=O)c1ccc(C(=O)N2CCN(c3ncccc3NC(C)C)CC2)nc1 | 0.13 (≈ 0.295 µM) | 28 | 53 | 63 | 
